From paper PMC11073699, “Odorant receptors for floral- and plant-derived volatiles in the yellow fever mosquito, Aedes aegypti (Diptera: Culicidae)” (PLOS ONE, 2024)
“And” between values parts separate entries of the source, which are not always exact repeats. Equal entries are not always repeated.

Columns and labels:
Type in all cases: cell-based
AaegOR11 = target: T1, AaegOR11 (Aedes aegypti, UniProt Q16PN4); test: Two-electrode voltage clamp of Xenopus laevis oocytes expressing AaegOR11/Orco (blends, unitary compounds, concentration-response); conditions: for Normalized response, Average, unitary compounds of blend Terpenes 3: average over oocytes (9; fenchones 6); for Normalized response, unitary compounds of blend Terpenes 3: individual oocytes, normalized to cis-Decahydro-1-napthol = 100; for Raw data (Responses in nA), unitary compounds, additional oocytes: six further oocytes in columns without head (fenchone comparison with cis-Decahydro-1-napthol); for Raw data (Responses in nA), unitary compounds of blend Terpenes 3: individual oocytes 1-9 (replicates); for Raw Data (Responses in nA), concentration-response: oocytes 1-9
T1 sequence (Q16PN4 1-420): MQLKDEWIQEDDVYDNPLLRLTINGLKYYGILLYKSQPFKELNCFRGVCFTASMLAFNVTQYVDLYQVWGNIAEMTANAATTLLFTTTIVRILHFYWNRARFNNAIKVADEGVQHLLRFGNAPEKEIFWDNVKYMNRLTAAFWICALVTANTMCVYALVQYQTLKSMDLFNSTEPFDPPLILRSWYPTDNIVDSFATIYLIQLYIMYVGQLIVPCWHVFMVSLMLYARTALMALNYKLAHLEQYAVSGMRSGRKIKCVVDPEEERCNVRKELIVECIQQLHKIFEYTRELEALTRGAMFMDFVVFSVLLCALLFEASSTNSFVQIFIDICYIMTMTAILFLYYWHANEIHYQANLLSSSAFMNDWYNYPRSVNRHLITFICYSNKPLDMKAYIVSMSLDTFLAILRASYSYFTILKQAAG
T1 sequence (Q178U6 1-478 partner): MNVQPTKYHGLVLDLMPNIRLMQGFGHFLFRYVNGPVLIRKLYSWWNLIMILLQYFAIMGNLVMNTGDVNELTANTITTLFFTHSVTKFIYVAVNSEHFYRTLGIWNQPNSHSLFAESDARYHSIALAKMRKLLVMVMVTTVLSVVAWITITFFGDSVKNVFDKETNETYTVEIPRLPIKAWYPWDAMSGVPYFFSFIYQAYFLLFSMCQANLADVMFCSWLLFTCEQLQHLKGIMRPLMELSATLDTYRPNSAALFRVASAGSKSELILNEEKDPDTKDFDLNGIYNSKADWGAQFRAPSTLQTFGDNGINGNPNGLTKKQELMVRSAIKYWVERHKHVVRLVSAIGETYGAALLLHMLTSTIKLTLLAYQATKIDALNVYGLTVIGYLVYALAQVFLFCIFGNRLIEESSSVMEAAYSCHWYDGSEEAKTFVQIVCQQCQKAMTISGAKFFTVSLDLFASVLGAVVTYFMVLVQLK
Description: (§1) The coding regions of ten AaegOR genes of interest (S3 File) and AaegOrco were synthesized by Twist Bioscience (San Francisco, CA, USA) and cloned into the pENTR plasmid. The Gateway LR directional cloning system (Invitrogen Corp., Carlsbad, CA, USA) was utilized to subclone AaegOR coding regions into the pSP64t-RFA oocyte expression plasmid. Plasmids were purified using the GeneJet Plasmid Miniprep Kit (ThermoFisher Scientific, Waltham, MA, USA). Purified plasmids were sequenced in both directions to confirm coding regions.
(§2) Chemical compounds (S6 File) used in the deorphanization of AaegORs were purchased from Acros Organics (Morris, NJ, USA), Alfa Aesar (Ward Hill, MA, USA), and ThermoFisher Scientific (Waltham, MA, USA) at the highest purity available. Compounds were stored as 1M stocks in 100% DMSO. Serial dilutions of each compound were prepared in 10% DMSO and blended by chemical class.
(§3) pSP64t-RFA: AaegOR clones were linearized using Xbal, and cRNAs were synthesized using the mMESSAGE mMACHINE ® SP6 kit (Life Technologies, Carlsbad, CA, USA). Xenopus laevis stage V-VII oocytes purchased from Xenopus1 (Dexter, MI, USA) were stored at 18°C in Incubation medium (ND96 96 with 5% dialyzed horse serum, 50μg/mL gentamycin, 100μg/mL streptomycin, 100μg/mL penicillin, and 550μg/mL sodium pyruvate). 30nL of cRNA was injected into multiple oocytes using a microinjection syringe pump (World Precision Instruments, Sarasota, FL, USA) maintained at 18°C for 48–72 hrs. Odorant blends were perfused across individual oocytes for 10–15 seconds, held at a resting membrane potential of -80 mV using an OC-725C oocyte clamp (Warner Instruments, LLC, Hamden, CT, USA). Induced currents were measured indirectly using the two-electrode voltage clamp technique (TEVC). Following each stimulus, currents were allowed to return to baseline before further stimulation. Data was captured using the Digidata 1550 B digitizer and PClamp10 software (Molecular Devices, San Jose, CA, USA). Concentration-response curves were generated by perfusing unitary odorants over oocytes at increasing concentrations from [10^-3M] to [10^-9M]. Data were analyzed using GraphPad Prism 8 (GraphPad Software Inc., La Jolla, CA, USA). At least two biological replicates were conducted at each concentration and for each compound. Data for at least seven oocytes responding to each compound was analyzed (S7 File).

AaegOR15 = target: T2, AaegOR15 (Aedes aegypti, UniProt A0A6B9QIR2); test: Two-electrode voltage clamp of Xenopus laevis oocytes expressing AaegOR15/Orco (blends, unitary compounds, concentration-response); conditions: for Raw data (Responses in nA), compounds of blend Alcohols 2: unitary compounds of Alcohols 2, individual oocytes 1-10 (replicates)
T2 sequence (A0A6B9QIR2 1-390): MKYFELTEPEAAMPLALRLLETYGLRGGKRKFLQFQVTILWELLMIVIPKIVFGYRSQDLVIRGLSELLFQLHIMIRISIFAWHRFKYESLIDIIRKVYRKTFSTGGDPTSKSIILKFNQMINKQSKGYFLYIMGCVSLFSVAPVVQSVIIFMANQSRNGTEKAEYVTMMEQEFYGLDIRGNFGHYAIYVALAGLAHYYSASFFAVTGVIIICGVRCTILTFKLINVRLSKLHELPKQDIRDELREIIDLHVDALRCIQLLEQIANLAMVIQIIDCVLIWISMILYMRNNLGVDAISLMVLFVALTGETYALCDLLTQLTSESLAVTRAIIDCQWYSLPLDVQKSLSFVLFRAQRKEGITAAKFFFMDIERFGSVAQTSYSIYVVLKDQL
T2 sequence (Q178U6 1-478 partner): T1 sequence (Q178U6 1-478 partner)
Description: as §1, §2, §3

AaegOR8 = target: T3, AaegOR8 (Aedes aegypti, UniProt Q16MN0); test: Two-electrode voltage clamp of Xenopus laevis oocytes expressing AaegOR8/Orco (blends, unitary compounds, concentration-response); conditions: Alcohols 2 unitary compounds
T3 sequence (Q16MN0 32-422): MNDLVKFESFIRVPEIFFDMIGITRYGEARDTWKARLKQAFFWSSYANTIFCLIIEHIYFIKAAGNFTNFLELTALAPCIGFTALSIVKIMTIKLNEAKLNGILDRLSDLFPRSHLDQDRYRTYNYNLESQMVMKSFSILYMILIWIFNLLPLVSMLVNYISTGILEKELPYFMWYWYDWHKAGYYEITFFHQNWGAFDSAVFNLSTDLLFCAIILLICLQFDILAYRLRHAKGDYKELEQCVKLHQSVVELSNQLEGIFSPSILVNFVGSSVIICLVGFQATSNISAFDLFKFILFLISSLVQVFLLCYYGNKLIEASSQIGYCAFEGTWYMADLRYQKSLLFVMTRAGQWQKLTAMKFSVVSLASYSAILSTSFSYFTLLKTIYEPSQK
T3 sequence (Q178U6 1-478 partner): T1 sequence (Q178U6 1-478 partner)
Description: as §1, §2, §3

CC1(C)C(=O)[C@@]2(C)CCC1C2 (single isomer, unassigned; (+)) [(+) Fenchone]
Normalized response, Average, unitary compounds of blend Terpenes 3 (AaegOR11): 36.7 | Normalized response, unitary compounds of blend Terpenes 3 (AaegOR11): 40.0 and 50.0 (2×) and 30.0 and 25.0 (2×) | Raw data (Responses in nA), unitary compounds, additional oocytes (AaegOR11): 10 nA

CC1(C)[C@H]2CC[C@]1(C)[C@H](O)C2 [(-)-Borneol]
Raw data (Responses in nA), unitary compounds of blend Terpenes 3 (AaegOR11): 0 nA

C=C1CCC2(C(C)C)CC12 (stereo not shown) [Sabiene]
Normalized response, Average, unitary compounds of blend Terpenes 3 (AaegOR11): 0.556 | Raw data (Responses in nA), unitary compounds of blend Terpenes 3 (AaegOR11): 0 nA (8×) and 5 nA | Normalized response, unitary compounds of blend Terpenes 3 (AaegOR11): 0.0 (8×) and 5.0

CCCCC/C=C\C=C\C(=O)OCC [Ethyl-2-trans-4-cis-decadienoate]
Normalized response, Average, unitary compounds of blend Terpenes 3 (AaegOR11): 0.0 | Raw data (Responses in nA), unitary compounds of blend Terpenes 3 (AaegOR11): 0 nA | Normalized response, unitary compounds of blend Terpenes 3 (AaegOR11): 0.0

OC1CCCC2CCCCC12 (stereo not drawn) [cis-decahydro-1-napthol, cis-Decahydro-1-napthol]
Raw Data (Responses in nA), concentration-response (AaegOR11; 1e-6 M): 10.0 nA | Raw Data (Responses in nA), concentration-response (AaegOR11; 5e-6 M): 15.0 nA and 10.0 nA and 20.0 nA | Raw Data (Responses in nA), concentration-response (AaegOR11; 1e-5 M): 15.0 nA and 10.0 nA | Raw Data (Responses in nA), concentration-response (AaegOR11; 0.0005 M): 90.0 nA and 60.0 nA and 100.0 nA and 50.0 nA and 65.0 nA | Raw Data (Responses in nA), concentration-response (AaegOR11; 0.001 M): 70.0 nA and 40.0 nA and 80.0 nA and 60.0 nA and 45.0 nA | EC50 (AaegOR11; AaegOR11/Orco expressing oocytes, TEVC, concentration-response of normalized current): ~68.4 µM and 68.4 µM | magnitude of response of AaegOR11 to unitary compounds (AaegOR11; AaegOR11/Orco expressing oocytes, TEVC, individual compounds): greater magnitude of response than (-)-fenchone or (+)-fenchone | Raw data (Responses in nA), unitary compounds of blend Terpenes 3 (AaegOR11): 70 nA and 100 nA and 30 nA (2×) and 40 nA (2×) and 85 nA and 150 nA and 110 nA | Raw data (Responses in nA), unitary compounds, additional oocytes (AaegOR11): 20 nA

CCC/C=C/CO [trans-2-hexen-1-ol]
response of OR15 to unitary compounds (AaegOR15; AaegOR15/Orco expressing oocytes, TEVC, individual compounds): additional responses | Raw data (Responses in nA), compounds of blend Alcohols 2 (AaegOR15): 30.0 nA (2×) and 40.0 nA and 310.0 nA and 480.0 nA (2×) and 375.0 nA and 270.0 nA and 440.0 nA and 135.0 nA | Raw data (Responses in nA) Oocyte 1 (AaegOR8): 0.0 nA | Raw data (Responses in nA) Oocyte 2 (AaegOR8): 0.0 nA | Raw data (Responses in nA) Oocyte 3 (AaegOR8): 0.0 nA | Raw data (Responses in nA) Oocyte 4 (AaegOR8): 0.0 nA | Raw data (Responses in nA) Oocyte 5 (AaegOR8): 0.0 nA | Raw data (Responses in nA) Oocyte 6 (AaegOR8): 0.0 nA | Raw data (Responses in nA) Oocyte 7 (AaegOR8): 0.0 nA | Raw data (Responses in nA) Oocyte 8 (AaegOR8): 0.0 nA

CC1(C)C(=O)[C@]2(C)CCC1C2 (single isomer, unassigned; (-)) [(-) Fenchone]
Normalized response, Average, unitary compounds of blend Terpenes 3 (AaegOR11): 23.3 | Normalized response, unitary compounds of blend Terpenes 3 (AaegOR11): 20.0 and 25.0 (2×) and 10.0 (2×) and 50.0

CC(=O)OCCC(C)C [Isomyl acetate]
Normalized response, Average, unitary compounds of blend Terpenes 3 (AaegOR11): 0.0 | Raw data (Responses in nA), unitary compounds of blend Terpenes 3 (AaegOR11): 0 nA | Normalized response, unitary compounds of blend Terpenes 3 (AaegOR11): 0.0

CC(C)=CCC/C(C)=C\CO [Nerol]
Raw data (Responses in nA), unitary compounds of blend Terpenes 3 (AaegOR11): 0 nA

CCC/C=C/C=O [trans-2-hexenal]
Raw data (Responses in nA), compounds of blend Alcohols 2 (AaegOR15): 0.0 nA and 15.0 nA and 30.0 nA (2×) and 10.0 nA and 40.0 nA (2×) and 50.0 nA (2×) and 60.0 nA | Raw data (Responses in nA) Oocyte 1 (AaegOR8): 0.0 nA | Raw data (Responses in nA) Oocyte 2 (AaegOR8): 0.0 nA | Raw data (Responses in nA) Oocyte 3 (AaegOR8): 0.0 nA | Raw data (Responses in nA) Oocyte 4 (AaegOR8): 0.0 nA | Raw data (Responses in nA) Oocyte 5 (AaegOR8): 0.0 nA | Raw data (Responses in nA) Oocyte 6 (AaegOR8): 0.0 nA | Raw data (Responses in nA) Oocyte 7 (AaegOR8): 0.0 nA | Raw data (Responses in nA) Oocyte 8 (AaegOR8): 0.0 nA

CC12CCC(C1)C(C)(C)C2=O (stereo not shown) [fenchone]
Secondary Ligand (AaegOR11; AaegOR11, secondary ligand identified during the functional characterizations): fenchone

C[C@@H]1CC[C@H]2C(C)(C)[C@H]3C[C@@]12CC[C@@]3(C)O [Cedrol]
Raw data (Responses in nA), compounds of blend Alcohols 2 (AaegOR15): 0.0 nA (3×) and 5.0 nA (2×) and 10.0 nA (3×) and 25.0 nA and 20.0 nA | Raw data (Responses in nA) Oocyte 1 (AaegOR8): 0.0 nA | Raw data (Responses in nA) Oocyte 2 (AaegOR8): 0.0 nA | Raw data (Responses in nA) Oocyte 3 (AaegOR8): 0.0 nA | Raw data (Responses in nA) Oocyte 4 (AaegOR8): 0.0 nA | Raw data (Responses in nA) Oocyte 5 (AaegOR8): 0.0 nA | Raw data (Responses in nA) Oocyte 6 (AaegOR8): 0.0 nA | Raw data (Responses in nA) Oocyte 7 (AaegOR8): 0.0 nA | Raw data (Responses in nA) Oocyte 8 (AaegOR8): 0.0 nA

C=C1CC/C=C(\C)CC[C@@H]2[C@@H]1CC2(C)C [beta-caryophyllene]
Raw data (Responses in nA), unitary compounds of blend Terpenes 3 (AaegOR11): 10 nA (2×) and 0 nA (6×) and 20 nA
